Reference: US12448475B2, “Drug delivery compositions and applications thereof” (The University of North Carolina at Chapel Hill, priority 2019, dated 2025)
Converted amounts (≈) assume the structure as drawn.

Key:
[1] = Solubilization of poorly soluble drugs in PMeOx-PcBOx polymeric micelles; conditions: polymer 10 mg/ml
Description: (§1) (P2). The molecules examined belonged to different classes including transforming growth factor β (TGF-β) receptor inhibitors (LY2109761, GW788388 and LY364947), protein synthesis inhibitors (bruceantin), toll-like receptor (TLR) 7 agonist (imiquimod), phosphatidylinositol 3-kinase (PI3K) inhibitors (wortmannin and pictilisib (GDC-0941)), microtubule inhibitor (paclitaxel), and topoisomerase inhibitors (Aclacinomycin A and SN-38). […] Drugs were screened at various ratios, beginning at 1:10 (drug:polymer), and increased the ratio until maximal solubility was obtained.

[2] = DLS size distribution of drug-loaded PMeOx-PcBOx micelle formulations; type: physicochemical; conditions: drug-loaded PMeOx-PcBOx micelle formulation
[3] = Release profile of encapsulated drugs from polymeric micelles; type: physicochemical; conditions: from P2, after 24 hours, 10:1 polymer:drug feeding ratio
Procedure: The release profile of encapsulated drugs (Paclitaxel and Bruceantin) in PMeOx-PcBOx was investigated. Both Paclitaxel and Bruceantin were continuously released from PMeOx-PcBOx nanoparticle, with over 80% of drugs being released at 24 hour time point (FIG. 5C). The release rates were similar for Bruceantin in both of the polymers. […] After 24 hours, most of the PTX was released in PcBOx whereas not even 50% was released from P2. This kind of release data is consistent with previously published data at this low (10:1) polymer:drug feeding ratio. Both paclitaxel and Bruceantin formulation in PMeOx-PcBOx were proven stable for 8 days at 4° C. as the drug loading and size distribution were monitored (FIGS. 5E and 5F).

[4] = Solubilization of poorly soluble drugs in P2 reference polymer micelles
Description: as §1

[5] = DLS size distribution of API-loaded micelles, Example 8; type: physicochemical; conditions: PcBOx triblock (PMeOx-PcBOx-PMeOx) micelles
Procedure: (§2) Drug-encapsulated polymeric nanoparticle formulations were prepared by the thin film hydration method. For resiquimod, imiquimod, and RXDX-105, stock solutions of PMeOx-PcBOx-PMeOx and drugs in chloroform:methanol (9:1) solution were mixed together at the pre-determined ratios (8:10 drug to polymer w/w ratio (resiquimod), 2:10 w/w ratio (imiquimod), 4:10 w/w ratio (RXDX-105)). The organic solvent was evaporated at 58° C. under a stream of inert gas to form a thin-film of drug-polymer homogenous mixture. Next, the thin films were hydrated with saline and then incubated for 5-10 min to form drug-encapsulated polymeric micelle solutions. All samples were prepared with 1 mg of polymer and hydrated with 100 uL of saline. The formed micelle solutions were centrifuged at 10,000 rpm for 3 minutes (Sorvall Legend Micro 21R Centrifuge, Thermo Scientific) to remove any precipitate of unloaded drug or polymer. The final concentration of drugs in PMeOx-PcBOx-PMeOx micelles was analyzed by HPLC (Agilent Technologies 1200 series) using a mixture of acetonitrile/water (70%/30% v/v for Resiquimod and imiquimod; 50%/50% v/v for RXDX-105) as the mobile phase. The samples were diluted with mobile phase to final concentration of ˜100 μg/mL of drugs and injected (10 μL) into the HPLC system. The flow rate was 1.0 mL/min, and column temperature was 40° C. Detection wavelength was 254 nm. Drug concentration was quantified against free drug calibration curves. Particle z-average effective diameter and polydispersity index (PDI) were measured by dynamic light scattering (DLS) (Nano-ZS, Malvern Instruments, UK).

[6] = Loading capacity of API-loaded micelles (thin film hydration, HPLC), Example 8; type: physicochemical; conditions: PcBOx triblock (PMeOx-PcBOx-PMeOx) micelles, polymer 10 mg/ml
Procedure: as §2, with “The samples were diluted with mobile phase to final concentration of ˜100 μg/mL of drugs and injected (10 μL) into the HPLC system. The flow rate was 1.0 mL/min, and column temperature was 40° C. Detection wavelength was 254 nm.” left out, “UK). […]” for “UK).”

Structure (SMILES): CC[C@@]1(O)C[C@H](O[C@H]2C[C@H](N(C)C)[C@H](O[C@H]3C[C@H](O)[C@H](O[C@H]4CCC(=O)[C@H](C)O4)[C@H](C)O3)[C@H](C)O2)c2c(cc3c(c2O)C(=O)c2c(O)cccc2C3=O)[C@H]1C(=O)OC [aclacinomycin A, Aclacinomycin A]
- LC (maximum loading capacity) [1]: 6.8%

Structure (SMILES): c1ccc(-c2[nH]ncc2-c2ccnc3ccccc23)nc1 [LY364947]
- LC (maximum loading capacity) [1]: 0.3%

Structure (SMILES): CC(=O)O[C@H]1C(=O)[C@@]2(C)[C@H]([C@H](OC(=O)c3ccccc3)[C@]3(O)C[C@H](OC(=O)[C@H](O)[C@@H](NC(=O)c4ccccc4)c4ccccc4)C(C)=C1C3(C)C)[C@]1(OC(C)=O)CO[C@@H]1C[C@@H]2O [paclitaxel]
- LC (maximum loading capacity) [1]: 6.3%
- Dv10 [2]: 23.3 nm
- Dv50 [2]: 34.6 nm
- Dv90 [2]: 80.9 nm
- PDI [2]: 0.298
- size in DLS measurement [2]: 85 nm
- drug released [3]: < 50%
- LC (maximum loading capacity) ([4]; P2 micelles, polymer 10 mg/ml): 41%
- LE (loading efficiency) ([4]; P2 micelles, polymer 10 mg/ml): 86%
- solubility ([4]; aqueous with cosolvent or surfactant or cyclodextrin): 6890 µg/mL (≈ 8.07 mM)

Structure (SMILES): c1ccc(-c2nn3c(c2-c2ccnc4cc(OCCN5CCOCC5)ccc24)CCC3)nc1 [LY2109761]
- LC (maximum loading capacity) [1]: 24.7%
- LE (loading efficiency) [1]: 82%
- maximal solubilized drug concentration [1]: ~3.28 mg/mL
- Dv10 [2]: 15.5 nm
- Dv50 [2]: 21.5 nm
- Dv90 [2]: 34.8 nm
- PDI [2]: 0.4
- size in DLS measurement [2]: 50 nm
- LC (maximum loading capacity) ([4]; P2 micelles, polymer 10 mg/ml): 14.0%
- LE (loading efficiency) ([4]; P2 micelles, polymer 10 mg/ml): 78%
- maximal solubilized drug concentration ([4]; P2 micelles, polymer 10 mg/ml): 1.5 mg/mL

Structure (SMILES): CCc1c2c(nc3ccc(O)cc13)-c1cc3c(c(=O)n1C2)COC(=O)[C@]3(O)CC [SN-38]
- LC (maximum loading capacity) [1]: undetectable

Structure (SMILES): CC(C)Cn1cnc2c(N)nc3ccccc3c21 [Imiquimod, imiquimod]
- LC (maximum loading capacity) [1]: undetectable
- Deff [5]: 160 nm
- PDI [5]: 0.18
- LC (%) [6]: 14.1%
- solubilization (in words) [4]: practically insoluble

Structure (SMILES): O=C(NC1CCOCC1)c1ccc(-c2cc(-c3c[nH]nc3-c3ccccn3)ccn2)cc1 [GW788388]
- LC (maximum loading capacity) [1]: 0.2%

Structure (SMILES): CS(=O)(=O)N1CCN(Cc2cc3nc(-c4cccc5[nH]ncc45)nc(N4CCOCC4)c3s2)CC1 [GDC-0941, pictilisib]
- LC (maximum loading capacity) [1]: 4.3%
- solubilization (in words) [4]: practically insoluble

Structure (SMILES): COc1cc2ncnc(Oc3cccc(NC(=O)Nc4cc(C(C)(C)C(F)(F)F)on4)c3)c2cc1OC [RXDX-105]
- Deff [5]: 112 nm
- PDI [5]: 0.30
- LC (%) [6]: 24.1%
